For assay [1], the system named is DRG neurons (axon vs. cell body compartment). Nature of the assay: Campenot chamber local axon degeneration (anti-NGF in axon compartment). In kind it is cell-based, mouse. The method, then: Teflon dividers (Tyler Research) were cleaned by washing in water and wiping them clean of any residual grease. Dividers were then soaked in Nochromix (Godax Laboratories)/sulfuric acid overnight, rinsed five times in distilled and autoclaved water (SQ water), boiled for 30 minutes, and then air-dried before use
Mouse laminin (5 μg/ml in sterile filtered water; Invitrogen) was added to PDL coated 35 mm dishes (BD Biosciences) and they were incubated for 1 hour at 37° C., followed by two rinses in SQ water. The dishes were vacuum-dried and then air-dried in a laminar flow hood for 15 minutes. Prepared dishes were then scored with a pin rake (Tyler Research). […] High vacuum grease (VWR) was added to each Teflon divider under a dissection scope. The laminin coated PDL dishes were inverted and dropped onto the Teflon divider, with additional pressure added by use of a toothpick in the non-track-containing regions. Dishes were incubated for 1 hour at 37° C. Five hundred microliters of NBM+MC (50 ng/ml NGF) solution was added to each of the side compartments, and a grease barrier was added in front of the center cell slot.
Free E13.5 spinal cords were dissected from mouse embryos and placed into NBM+MC (25 ng/ml NGF) solution. DRGs were detached from the spinal cord with a tungsten needle. An NBM+MC-lubricated P200 pipette was used to move DRGs into a 1.5 ml tube. DRGs were pelleted with a tabletop centrifuge for 30 seconds. The supernate was discarded and 0.05% Trypsin/EDTA (cold) was added. The pellet was resolubilized with a pipette and incubated at 37° C. for 15 minutes with constant agitation (650 RPM). The sample was again centrifuged and the supernate discarded. The pellet was resuspended in warm NBM+MC (50 ng/ml NGF) solution and triturated with a flamed glass pipette 20 times, followed by trituration with a fire-bored glass pipette another 20 times. The samples were again centrifuged and the resulting pellets were resuspended in 0.5 ml NBM+MC (50 ng/ml NGF) solution. The cells were diluted to a final concentration of 2.5×10^6 cells/ml. The cell suspensions were loaded into a 1 ml syringe with a 22 gauge needle. The center slot of the Campenot divider was filled using the syringe (to a volume of at least 50 μl). The Campenot chamber was incubated overnight at 37° C. 2.5 ml NGF+MC (50 ng/ml NGF) solution was added to the center compartment and the grease gate was removed. The outer medium (cell body compartment) was replaced after three days with 2.5 ml NBM+MC medium (with 25 ng/ml NGF). After five days in culture, one distal compartment was washed three times with warmed NBM+MC (no NGF) solution. After the third wash, 500 μl NBM+MC (no NGF) solution was added to the axon compartment in combination with either 0.5% DMSO or an inhibitor. The cell body compartment was replaced with 2.5 ml NBM+MC medium (with 25 ng/ml NGF) containing either 0.5% DMSO or inhibitor.
After 28 hours of anti-NGF antibody treatment, 8% PFA/30% sucrose solution (see above) was added directly to the culture medium at a 1:1 dilution and incubated for 30 minutes. The Teflon divider was removed after the first 15 minutes of addition. The system was washed once with 2.5 ml PBS prior to immunostaining. Neurons were blocked in 5% BSA/0.2% triton in PBS for 30 minutes. The primary antibody Tuj1 (Covance) was added to a final dilution of 1:1000 in PBS containing 2% BSA and incubated overnight at 4° C. The dish was washed once with PBS. […] The dish was washed twice with PBS, and a 22×22 mm coverslip (VWR) was added with 350 μl of fluoromount G (Electron Microscopy Sciences). The neurons were visualized by use of a fluorescence microscope.
As described above, E13.5 DRGs were isolated and grown for 5 days in a Campenot chamber.

Assay [2] relates to cerebellar granule neurons (CGNs). Nature of the assay: serum deprivation/KCl reduction degeneration of cerebellar granule neurons. It is filed as cell-based, mouse. The conditions noted are these: 5 μM; 5 mM KCl, 24 hours.
Assay [3] concerns p38 MAPK. The following applies: LPS-induced TNF-alpha production, human monocytes; published source; read-out: Cellular IC50; cited from earlier work.
Assay [4] concerns DRGs. Nature of the assay: anti-NGF antibody (NGF withdrawal) screen for inhibitors of axon degeneration in DRG explants. It is filed as cell-based, mouse. The conditions noted are these: inhibitor 100 μM or 10 μM added 1 hour before 25 μg/ml anti-NGF; 20 hours; actin stain. The method, then: The anti-NGF antibody model described above in Example 1 was used in a screen for inhibitors of neuron or axon degeneration. A library of more than 400 small molecules (Tocris Bioscience) was tested to see which, if any, modulate degeneration observed in the presence of anti-NGF antibodies.
Mouse E13.5 embryos were dissected and placed into L15 medium (Invitrogen). The spinal cord was dissected out from the embryos with DRGs attached. The spinal cords with DRGs attached were placed into L15 medium+5% goat serum (Gibco) on ice. The DRGs were removed using a tungsten needle and the remaining spinal cord was disposed of. Eight well slides were filled with N3-F12 solution (23 ml Ham's F12, 1 ml N3 supplement, and 1 ml 1 M glucose) to which was added 25 ng/ml NGF (Roche). (N3 supplement was made by dilution of N3 100× concentrate, which was made by mixing the following ingredients, in the following order: 5.0 ml Hank's buffered saline solution (HBSS; Ca, Mg free; Invitrogen), 1.0 ml bovine serum albumin (10 mg/ml in HBSS=150 μm), 2.0 ml Transferrin (T1147-1G, human, 100 mg/ml in HBSS=1.1 mM), 1.0 ml sodium selenite (S9133-1MG, 0.01 mg/ml in HBSS 58 μM), 0.4 ml putrescine dihydrochloride (P5780-5G, 80 mg/ml in HBSS=500 mM), 0.2 ml progesterone (P8783-5G, 0.125 mg/ml in absolute ethanol=400 μM), 0.02 ml corticosterone (C2505-500MG, 2 mg/ml in absolute ethanol=5.8 mM), 0.1 ml triiodothyonine, sodium salt (T6397-100MG, 0.2 mg/ml in 0.01 N NaOH=300 μM), 0.4 ml insulin (16634-250MG, bovine pancreas, 241 U/mg, 25 mg/ml in 20 mM HCl=4.4 mM), for a total volume of 10.02 ml (can be stored at −20° C.). An N3 supplement stock was made by combining the following: 10 ml Pen/Strep (100×, Gibco), 10 ml glutamine (200 mM, Gibco), 10 ml MEM vitamins (100×, Gibco), 10 ml N3 concentrate (100×, see above), for a total volume of 40 ml. The mixture was filter sterilized using a 0.22 μm filter, and 1-2 ml aliquots were stored at −20° C.).
The DRGs were sectioned into halves and placed in the center of each well of an 8-chamber slide (BD Biocoat PDL/Laminin coated glass, Becton Dickinson). The DRGs were permitted to attach to the slide at room temperature for 5-10 minutes, followed by an overnight incubation at 37° C. Inhibitors of choice were added at a concentration of 100 μM (top row) or 10 μM (bottom row) 1 hour before adding anti NGF antibodies. The anti-NGF antibodies were added to the right half of the slide (4 wells) at a concentration of 25 μg/ml. After incubation for 20 hours at 37° C., the slides were fixed with 30% sucrose/8% paraformaldehyde (PFA) by adding 250 μl of the fix solution directly to the 250 μl of culture medium. (To make the 30% sucrose/8% PFA solution, the following ingredients were added to a 600 ml beaker including a stir bar: 250 ml 16% PFA (cat#15710-S, Electron Microscopy Sciences), 50 ml 10×PBS pH 7.4, and 150 g sucrose. The solution was mixed under low heat until dissolved, and then 6-8 drops of 1 M NaOH were added to bring the pH to 7.4. The volume was then brought to 500 ml with water in a graduated cylinder. The solution was mixed well, placed in aliquots, and frozen.) The s ides were fixed for 30 minutes, followed by washing once with PBS. All cells were labeled with an actin stain (Alexa-568 conjugated phalloidin; 1:40; Invitrogen), a membrane dye (DiO; 1:200; Invitrogen), and a DNA stain (Hoechst 33258; 1:10,000; Invitrogen) in 0.1% Triton and 1% goat serum for 2 hours at room temperature. […]

Assay [5] relates to CaMKK. The conditions noted are these: CaMKK activity after ionomycin stimulation, transfected HeLa cells; published source; read-out: Cellular IC50; cited from earlier work.

“Also recorded” adds a separate entry of the source.

On to `COc1nccc(-c2c(-c3ccc(F)cc3)ncn2C2CCC(O)CC2)n1` (centres unmarked) [SB239063], for which, in assay [1] (30 μM SB415, 15 μM Act D in cell body compartment, 10 μM AG555, 30 μM SB239 in axon compartment), the “formation of varicosities in locally NGF-deprived axons” value is on record as “fewer varicosities”. Besides, the “Axon Compartment (protection of NGF-deprived axons)” value in assay [1] (inhibitor 5 μM in axon compartment) was “Yes (1)”; in assay [1] (inhibitor 30 μM in axon compartment, anti-NGF on axons 28 hours, number in parentheses not explained), “Yes (3)”; in assay [1] (inhibitor 30 μM in axon compartment, anti-NGF on axons 28 hours, number in parentheses not explained, listed as SB239) it was “did not degenerate; also recorded: protected from local degeneration”. The “Cell Body Compartment (protection of NGF-deprived axons)” value in assay [1] (inhibitor 5 μM in cell body compartment) was “No (1)”; in assay [1] (inhibitor 30 μM in cell body compartment, anti-NGF on axons 28 hours, number in parentheses not explained) it was “No (3)”; in assay [1] (inhibitor 30 μM in cell body compartment, anti-NGF on axons 28 hours, number in parentheses not explained, listed as SB239), “failed to prevent degeneration”. The “protection of cerebellar granule neurons from serum deprivation/KCl reduction” value in assay [2] is “protect”. Further, the IC50 in assay [3] is 0.35 µM.
As to `O=C(O)c1ccc2c3c1cccc3c(=O)n1c3ccccc3nc21` [STO-609], in assay [4], the “Comments (observations on compounds found to protect against neurodegeneration)” value is on record as “Partial”. Besides, the “Axon Compartment (protection of NGF-deprived axons)” value in assay [1] (inhibitor 15 μM in axon compartment) was “Yes (1)”. Further, in assay [1] (inhibitor 15 μM in cell body compartment), the “Cell Body Compartment (protection of NGF-deprived axons)” value is reported as “No (1)”. The “protection of cerebellar granule neurons from serum deprivation/KCl reduction” value in assay [2] is “protect”. Besides, the IC50 in assay [5] was 3 µM.

One may read the IC50 as the concentration needed to halve the response being measured.

The values are drawn from patent publication US20140328940A1, “MODULATION OF AXON DEGENERATION” (Genentech, Inc., priority 2009, published 2014).
